Row | melting point [°C] | SMILES
1 | 176 to 178 | O=C(O)c1ccc(OCCn2ncc3nc(C(=O)NCc4cccc(OCCOc5nc[nH]n5)c4)[nH]c(=O)c32)cc1
2 | 206 to 209 | CC(CN1CCC(C#N)C1)NC(=O)c1c[nH]c2ncc(-c3nn(C)c4cc(Cl)ccc34)nc12 (stereo not drawn)
3 | 168 to 169 | COc1cc2c(c3c1OC(C)(C)C3)C(c1cccc(N(C(N)=O)c3cccnc3)c1)=NC(C)(C)C2
4 | 130 | COC=C(C(=O)OC)c1csc2ccc(COc3ccccc3)cc12
5 | 183 to 186 | O=S(=O)(Cc1nc2ccc(Cl)cc2[nH]1)c1ccccn1
6 | 108 to 110 | CCCc1nn(C)c2c(=O)n(CCOc3ccc(OC(C)(C)C(=O)O)cc3)c(CC)nc12
7 | 189 to 190 | CCCCOc1c(CNC(=O)OC(C)(C)C)n(CC(C)C)c(=O)c2ccc(C(N)=S)cc12
8 | 157 to 158 | CCCCC(=O)C(C)(C)N1COC(C)=C(c2ccccc2)C1=O
9 | 80 to 81 | CCOC(=O)CCn1c(=O)c2ccccc2n(CCCCl)c1=O
10 | 119 to 120 | Cc1cccnc1-n1c(S(=O)Cc2ccccc2N(C)C)nc2c1CCC2 (stereo not drawn)
11 | 201 to 202 | O=[N+]([O-])c1cc(Cl)c2cccnc2c1O
12 | 153 to 155 | Cc1nc(N2CCC(CC3CC3)C2=O)sc1C(=O)NCc1ccc(F)cc1 (stereo not drawn)
13 | 133 to 134 | O=[N+]([O-])c1cccc(Oc2cccc3cccnc23)c1
14 | 101 to 102 | COc1cc(F)cnc1OCC#Cc1ccc(Cl)nc1
15 | 175 to 176 | CCOc1ccnc(CSc2nc3cc4c(cc3[nH]2)C(C)(C)C(=O)C4(C)C)c1C
16 | 169 to 170 | Fc1ccc(C2OC(=S)OC2(Cn2cncn2)c2ccc(Cl)cc2Cl)cc1 (stereo not drawn)
17 | 235 to 237 | CCCc1cccc(CNC(=O)c2nc3scc(COCc4ccc(C(=O)O)cc4)c3c(=O)[nH]2)c1
18 | 263 to 266 | CCn1c(=O)c(C(N)=O)c(N)c2ccc(C)nc21
19 | 65 | CCCCC(Cc1cccnc1)(C(=O)O)S(=O)(=O)c1ccc(OC)cc1 (stereo not drawn)
20 | 188 | COc1ccc2ccc(N3C(=O)c4ccccc4C3OCC(=O)OC(C)(C)C)nc2n1 (stereo not drawn)
21 | 137 to 138 | COc1cc(COc2nn(-c3ccccc3)cc2C=O)ccc1OCc1nc(-c2ccco2)oc1C
22 | 143 to 146 | O=C(Nc1ccc(-n2nc(C(F)(F)F)cc2C2CC2)cc1)c1ccncc1F
23 | 190 | CCC(C(=O)c1ccc(Cl)cc1)n1ncn(-c2ccc(N3CCN(c4cnccn4)CC3)nc2)c1=O (single isomer, unassigned; (+))
24 | 95 to 97 | CCCc1c(OCC(=O)NCCCCc2cccnc2)ccc(C(C)=O)c1O
25 | 78 to 80 | COc1ccc(CNS(=O)(=O)CCCCl)cc1
26 | 166 | CN(C)CCN1CCC(Nc2nc3ccccc3n2Cc2ccc(F)cc2)CC1

Row | melting point [°C] | SMILES
27 | 121 to 123 | O=C(NCc1ccccc1)c1ccnc(N2CCN(CC3CC3)C2=O)c1
28 | 147 to 149 | CCOC(=O)c1cnc2c(c(C)nn2-c2ccccn2)c1N
29 | 78 to 80 | CCC(Oc1ccc2ncccc2c1)C(=O)O (stereo not drawn)
30 | 177 to 179 | CCCCOc1ccc(NC(=O)c2cnc(C(=O)NCC(=O)OCC)c(Cl)c2)cc1
31 | 132 to 134 | CC(C)(C#N)c1cc(Cc2cncnc2)cc(C(C)(C)C#N)c1
32 | 88 to 89 | CCOC(=O)c1cccc2oc(C=O)cc12
33 | 109 to 111 | Cc1c(NC(=O)CC(C)(C)C)cc2c(c1C)OC(C)(C)C2(O)c1ccccc1 (stereo not drawn)
34 | 203 to 206 | Cc1cc(N2CCc3ncccc3C2)nc(N2CCCC2)c1NC(=O)Cc1cc(F)cc(F)c1
35 | 216 to 218 | CC(C)(O)c1ccc(Cl)c2nc3n(c12)CCCN3c1ccc(Cl)cc1Cl
36 | 250 | N=C(N)NC(=O)c1cn(-c2nccc3ccccc23)c2ncccc12
37 | 128 to 130 | CNC(=O)C1=CC(C)(COC)Oc2ccc([N+](=O)[O-])cc21 (stereo not drawn)
38 | 116 to 118 | CCCCc1nc2ccccn2c(=O)c1-c1ccc(NC2CCN(C(=O)OC(C)(C)C)C2)cc1 (stereo not drawn)
39 | 112 to 114 | CCc1nn(CCNC(=O)OC(C)(C)C)c(CN)c1Oc1cc(Cl)cc(Cl)c1
40 | 148 to 149 | CCCCCCC#CC(O)C1=Nc2ccccc2C(=O)C1C (stereo not drawn)
41 | 130 to 133 | NS(=O)(=O)c1ccc(-n2cc(C(F)(F)F)nc2-c2ccc(-c3cscn3)cc2)cc1F
42 | 137 | Nc1c(Cl)cc(C(=O)OCC2CCN(CCCn3nc(Cl)ccc3=O)CC2)c2c1CCO2
43 | 178 to 182 | COc1ccc(Cn2nnnc2C2N3C(=O)C(NC(c4ccccc4)(c4ccccc4)c4ccccc4)C3SC2(C)C)cc1 (stereo not drawn)
44 | 72 to 74 | CC(C)(C)c1cc2c(Cl)ncnc2o1
45 | 139 to 140 | CCCCn1c(COCC)nc2c(N)nc3ccccc3c21
46 | 101 to 103 | COc1cccc2c1CCC1C(=O)N(C(C)c3ccccc3)C(=O)C21 (stereo not drawn)
47 | 86 to 87 | C=C1CCN([C@H](C)[C@](O)(Cn2cncn2)c2ccc(F)cc2F)CC1
48 | 148 to 149 | CCC1CN(Cc2ccccc2)c2c3c(nc4cccc(c24)O1)CCCC3 (stereo not drawn)
49 | 157 to 161 | O=C(O)c1cc(Oc2cc(Cl)c(Cl)cc2Cl)ccc1[N+](=O)[O-]
50 | 156 to 157 | COc1cc2c(cc1OC)C(C)Cn1c-2cc(=Nc2c(C)cc(C)cc2C)n(C)c1=O (stereo not drawn)
51 | 160 to 161 | CC(C)C(=O)OC1C(n2ccc(=O)[nH]c2=O)OC(COC(=O)c2ccc(Cl)cc2)C1(C#C[Si](C)(C)C)OC(=O)C(C)C (stereo not drawn)
52 | 174 | COc1ccc(-c2ccc(C(=O)Nc3ccc4cc(CN5CCCC5)cnc4c3)c(F)c2)cc1

Second part, the compound before the results:

Row | SMILES | melting point [°C]
53 | COc1cc(C=O)cc(OC)c1OC1OC(COC(C)=O)C(OC(C)=O)C(OC(C)=O)C1NC(C)=O (stereo not drawn) | 222 to 225
54 | O=C(O)Cc1ccc2c(c1)C(=O)Cc1ccccc1S2 | 166 to 167
55 | O=C(NC1CCCCC1)c1ccccc1I | 148 to 149
56 | Ic1ccc(OCCCCCCCN2CC2)nc1 | 41 to 45
57 | CCCCCCCCCCCCCCCC1CCCC(c2ccc(O)cc2)(c2ccc(O)cc2)C1 (stereo not drawn) | 104
58 | CCC12CCC3C4CCC(=O)C=C4CCC3C1C=CC2=O (stereo not drawn) | 157
59 | CCCC(=O)Nc1n[nH]c2c(F)c(N3CCOCC3)c(Br)cc12 | 240
60 | Nc1c(O)cc2c(c1[N+](=O)[O-])CCC2 | 196 to 198
61 | O=C(CCCc1ccccc1)N[C@H](Cc1ccccc1C(F)(F)F)[C@@H](O)c1ccc(F)cc1 (racemic) | 161 to 162
62 | Cc1cccc2[nH]c(=O)n(CCCN3CC=C(c4cccc(Cl)c4)CC3)c(=O)c12 | 180 to 183
63 | COc1cc(C)cc(OC)c1C1=NC(NC(=O)C(N)Cc2ccccc2)C(=O)N(C)c2ccccc21 (stereo not drawn) | 165
64 | CC(C)CC(=O)Nc1ccc2oc3c(c2c1)CCCCCC3 | 154 to 155
65 | COC(=O)Cc1csc2cc(-c3ccccc3)c(C=O)n12 | 118 to 120
66 | CC12CCC3c4ccc(C(=O)O)cc4CCC3C1CCC2C(=O)C#Cc1ccccc1 (stereo not drawn) | 174 to 178
67 | N#CC1=CC(Br)=NC1(N)C#N (stereo not drawn) | > 210
68 | COc1ccc(O)c(NC(=O)C(Br)c2ccccc2)c1 (stereo not drawn) | 145 to 147
69 | CC(C)(c1ccc(Oc2cccc([N+](=O)[O-])c2)cc1)c1ccc(Oc2cccc([N+](=O)[O-])c2)cc1 | 111 to 113
70 | Cc1cc(C2=CCN(CCCC(=O)c3ccc(F)cc3)CC2)on1 | 96 to 98
71 | Cn1cc(C(=O)NC(=O)N2CC2C#N)c([N+](=O)[O-])n1 (stereo not drawn) | 58 to 64
72 | OC(c1ccccc1Cl)C(c1ccccc1Cl)n1ccnc1 (stereo not drawn) | 62 to 68
73 | COC(=O)c1ccc2c(c1)N(C(=O)N1CCC(c3cccnc3)C1)CCO2 (stereo not drawn) | 61
74 | Cc1ccc(S(=O)(=O)N2C(=O)[C@H]3CC=C[C@H]32)cc1 | 93 to 95
75 | CC(C)(C)OC(=O)N1CCN(c2ccc(C#N)c(F)c2)CC1 | 130 to 131

Row | SMILES | melting point [°C]
76 | CC(C)[C@H](N)C(=O)NC(Cc1ccccc1)C(O)C(Cc1ccccc1)NC(=O)[C@@H](NC(=O)OCc1ccccc1)C(C)C (stereo partly drawn) | 126 to 127
77 | O=C(Oc1ccc(Oc2ccc(C(F)(F)F)cn2)cc1)N1CCS(=O)CC1 | 156 to 157
78 | COC(=O)CN(CC(=O)OC)c1cc(OCCCCCCCCCCCCOc2ccccc2)cc(OCCCOc2ccc(S(C)=O)cc2)c1 (stereo not drawn) | 47 to 49
79 | Cc1ccc(S)c(C(=O)O)c1 | 56 to 58
80 | BrC(c1ccccc1)(c1ccccc1)C1(c2ccccc2)OCCO1 | 206
81 | CC1OC(n2cc(F)c(NC(=O)c3ccc4c(c3)OCO4)nc2=O)C(O)C1O (stereo not drawn) | 124 to 125
82 | Nc1ccc(-c2n[nH]c3c2Cc2ccccc2-3)cc1 | 253 to 254
83 | NC(=O)C(O)c1c(Cl)cccc1Cl (stereo not drawn) | 155 to 158
84 | CC(=O)NC1CCN(c2c(F)cc3c(=O)c(C(=O)O)cn4c3c2CCC4C)CC1 (stereo not drawn) | 274 to 277
85 | O=C(O)c1cn(C2CC2)c2cc(Cl)ccc2c1=O | 307 to 308
86 | O=C(c1ccc(F)cc1)N1CCc2cc(S(=O)(=O)N3CC(c4ccccc4)NC3=O)ccc21 (stereo not drawn) | 134
87 | COC(=O)C(C#N)=Cc1cccs1 | 104 to 106
88 | CC(C#N)c1ccc(-c2nc3ccccc3o2)cc1 (stereo not drawn) | 116 to 117
89 | Cc1ccc(-c2cccc(C#N)c2)cc1 | 59 to 61
90 | COc1ccc(C=C[N+](=O)[O-])c(Cl)c1OC | 88 to 91
91 | Nc1c(C(=O)CCC(=O)O)cccc1C(=O)c1ccc(Cl)cc1 | 172 to 177
92 | Cc1ccc(I)c(I)c1C | 175 to 178
93 | NCC1Cc2cc(Cl)cc(-c3cccnc3)c2O1 (stereo not drawn) | > 250
94 | CC(C)(C)OC(=O)[C@@H]1CS[C@H](c2ccccc2)N1C(=O)CNC(=O)Nc1cccc(C(=O)O)c1 | 134
95 | COC(=O)c1ccc(OC)cc1S(N)(=O)=O | 135 to 139
96 | CC(C)(C)C(=O)C(Br)Oc1ccc(S(=O)(=O)c2ccccc2)cc1 (stereo not drawn) | 157 to 162
97 | CC(C)(CC(=O)O)CC(=O)N[C@H](Cc1ccc(-c2ccccc2)cc1)C(=O)NCCCCNc1ncccn1 | 77 to 95
98 | CC(=O)C1CCCNC1=O (stereo not drawn) | 101 to 103

From a melting point compilation (Tetko et al.; mined from patent text by program, amines drawn as free bases though some values may be those of a salt)
